From ChEMBL document CHEMBL1201862, “PubChem BioAssay data set” (2004)
Active and inactive are the calls of the source.

Columns and labels:
[1] = biological target: T1, Sentrin-specific protease 8 (Homo sapiens, UniProt Q96LD8); assay type: functional;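 further: luminescence read-out of SENP8 inhibition, dose-response confirmation following an ultra-high-throughput screen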
T1 sequence (Q96LD8 whole entry): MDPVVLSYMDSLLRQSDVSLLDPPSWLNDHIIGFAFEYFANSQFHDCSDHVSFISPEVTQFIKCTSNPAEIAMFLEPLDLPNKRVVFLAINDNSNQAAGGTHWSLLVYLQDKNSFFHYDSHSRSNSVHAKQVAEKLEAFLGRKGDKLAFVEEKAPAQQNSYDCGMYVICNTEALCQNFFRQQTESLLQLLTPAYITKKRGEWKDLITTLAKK

[2] = biological target: T2, Zinc finger protein mex-5 (Caenorhabditis elegans, UniProt Q9XUB2); assay: potency of MEX-5 RNA-binding blockers – biochemical, C. elegans, fluorescence polarization, dose response (AID 1960)
T2 sequence (Q9XUB2 whole entry): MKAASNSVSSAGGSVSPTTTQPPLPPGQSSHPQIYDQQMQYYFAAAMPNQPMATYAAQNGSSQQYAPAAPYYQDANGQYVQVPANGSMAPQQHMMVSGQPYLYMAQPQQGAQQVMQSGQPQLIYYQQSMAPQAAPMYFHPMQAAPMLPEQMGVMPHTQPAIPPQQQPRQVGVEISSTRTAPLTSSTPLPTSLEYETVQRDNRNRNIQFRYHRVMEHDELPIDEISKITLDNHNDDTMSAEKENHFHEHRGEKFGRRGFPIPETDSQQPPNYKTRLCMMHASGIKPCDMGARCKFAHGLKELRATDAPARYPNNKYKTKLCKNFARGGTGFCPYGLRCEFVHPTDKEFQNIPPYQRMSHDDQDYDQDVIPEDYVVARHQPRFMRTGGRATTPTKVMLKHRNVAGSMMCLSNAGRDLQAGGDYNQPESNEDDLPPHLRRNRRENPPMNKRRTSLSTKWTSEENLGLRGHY

[3] = biological target: DNA (cytosine-5)-methyltransferase 1 (Homo sapiens, UniProt P26358); assay: inhibition of DNA methylation by DNMT1 – biochemical, fluorescent molecular beacon, confirmation (AID 602386); assay type: functional
[4] = biological target: T3, Endoribonuclease toxin MazF (Escherichia coli K-12, UniProt P0AE70); assay: activation of MazEF endoribonuclease cleavage – biochemical, fluorescence, single-stranded RNA substrate, uHTS hits, dose response (AID 588481); assay type: functional
T3 sequence (P0AE70 whole entry): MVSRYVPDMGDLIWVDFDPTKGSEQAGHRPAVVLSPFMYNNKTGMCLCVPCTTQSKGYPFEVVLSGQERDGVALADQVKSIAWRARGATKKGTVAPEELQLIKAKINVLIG

[5] = cytotoxicity in MITF-independent A375 cells – cell-based, CellTiter-Glo luminescence, dry powder, set 4, counter-screen for MITF inhibitor project, dose response (AID 624364); assay type: functional; conditions: A-375;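 further: A375 melanoma cells are MITF independent so this is a counter screen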
[6] = IC50 of Artemis nuclease activity blockers – biochemical, fluorescence intensity, dose response (AID 720701); assay type: functional;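 further: Artemis endonuclease enzyme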
[7] = biological target: T4, Microphthalmia-associated transcription factor (Homo sapiens, UniProt O75030); assay: reducers of TRPM1 reporter luminescence, concentration series – cell-based, SK-MEL-5, cherry-picked, set 3, MITF inhibitor project, dose response (AID 493073); assay type: functional;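 further: SK-MEL-5 melanoma cells with luciferase driven by the MITF target TRPM1 promoter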
T4 sequence (O75030 whole entry): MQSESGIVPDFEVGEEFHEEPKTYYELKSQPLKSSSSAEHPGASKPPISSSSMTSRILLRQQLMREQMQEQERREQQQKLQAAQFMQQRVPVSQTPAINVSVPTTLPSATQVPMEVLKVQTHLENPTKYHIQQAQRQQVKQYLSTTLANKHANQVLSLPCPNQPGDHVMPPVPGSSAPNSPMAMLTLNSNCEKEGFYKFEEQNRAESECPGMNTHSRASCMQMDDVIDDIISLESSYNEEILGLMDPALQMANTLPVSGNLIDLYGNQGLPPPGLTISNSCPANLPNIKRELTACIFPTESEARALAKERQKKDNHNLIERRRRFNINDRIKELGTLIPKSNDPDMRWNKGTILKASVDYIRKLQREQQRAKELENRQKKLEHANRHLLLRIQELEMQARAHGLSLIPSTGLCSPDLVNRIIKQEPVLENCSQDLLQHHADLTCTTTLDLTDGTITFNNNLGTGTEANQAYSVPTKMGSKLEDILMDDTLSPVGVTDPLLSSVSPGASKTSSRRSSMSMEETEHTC

[8] = biological target: Serine/threonine-protein phosphatase PP1-alpha catalytic subunit (Homo sapiens, UniProt P62136); assay: inhibition of protein phosphatase 1 activity – biochemical, fluorescence, dose response (AID 2394)
[9] = biological target: Tyrosyl-DNA phosphodiesterase 2 (Homo sapiens, UniProt O95551); assay: potency against TDP2 phosphodiesterase activity – biochemical, epi absorbance, IC50, dose response (AID 743297)
Protein RecA = biological target: T5, Protein RecA (Mycobacterium tuberculosis, UniProt P9WHJ3); assay: Fluorescence Cell-Free Homogeneous Dose Retest to Identify Inhibitors of RecA-Intein Splicing Activity. [Related pubchem assays (depositor defined):AID2097, AID2223, AID489010, AID492950]; assay type: functional
T5 sequence (P9WHJ3 whole entry): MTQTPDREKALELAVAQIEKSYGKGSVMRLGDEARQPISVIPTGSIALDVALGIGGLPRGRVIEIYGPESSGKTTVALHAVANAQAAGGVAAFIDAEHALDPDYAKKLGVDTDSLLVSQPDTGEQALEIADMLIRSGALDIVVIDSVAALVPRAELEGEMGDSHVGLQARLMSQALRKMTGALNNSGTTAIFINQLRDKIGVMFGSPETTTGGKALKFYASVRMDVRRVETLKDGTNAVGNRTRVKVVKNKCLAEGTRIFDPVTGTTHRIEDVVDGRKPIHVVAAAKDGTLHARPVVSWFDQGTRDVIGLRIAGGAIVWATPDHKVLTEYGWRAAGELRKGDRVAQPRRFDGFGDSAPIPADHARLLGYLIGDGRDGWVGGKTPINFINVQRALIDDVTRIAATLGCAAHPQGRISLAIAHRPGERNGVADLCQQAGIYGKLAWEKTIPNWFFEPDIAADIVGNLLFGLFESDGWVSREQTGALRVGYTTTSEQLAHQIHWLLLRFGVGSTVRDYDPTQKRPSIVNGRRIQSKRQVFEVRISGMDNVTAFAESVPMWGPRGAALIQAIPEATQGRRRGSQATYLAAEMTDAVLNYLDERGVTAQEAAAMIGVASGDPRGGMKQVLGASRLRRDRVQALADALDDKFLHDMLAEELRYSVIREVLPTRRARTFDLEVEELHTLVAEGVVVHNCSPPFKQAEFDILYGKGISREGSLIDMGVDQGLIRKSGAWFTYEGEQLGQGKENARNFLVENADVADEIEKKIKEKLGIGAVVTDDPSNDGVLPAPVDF

[10] = Luminescence-based counterscreen assay for KLF5 inhibitors: dose response cell-based high throughput screening assay to identify cytotoxic compounds using the IEC-6 intestinal epithelial cell line. [Related pubchem assays: 1700 (Primary screen.), 1834 (Confirmation screen.), 1858 (Summary AID.), 1905 (Counterscreen.)]; assay type: functional

Chain of DNA (cytosine-5)-methyltransferase 1 (P26358 whole entry): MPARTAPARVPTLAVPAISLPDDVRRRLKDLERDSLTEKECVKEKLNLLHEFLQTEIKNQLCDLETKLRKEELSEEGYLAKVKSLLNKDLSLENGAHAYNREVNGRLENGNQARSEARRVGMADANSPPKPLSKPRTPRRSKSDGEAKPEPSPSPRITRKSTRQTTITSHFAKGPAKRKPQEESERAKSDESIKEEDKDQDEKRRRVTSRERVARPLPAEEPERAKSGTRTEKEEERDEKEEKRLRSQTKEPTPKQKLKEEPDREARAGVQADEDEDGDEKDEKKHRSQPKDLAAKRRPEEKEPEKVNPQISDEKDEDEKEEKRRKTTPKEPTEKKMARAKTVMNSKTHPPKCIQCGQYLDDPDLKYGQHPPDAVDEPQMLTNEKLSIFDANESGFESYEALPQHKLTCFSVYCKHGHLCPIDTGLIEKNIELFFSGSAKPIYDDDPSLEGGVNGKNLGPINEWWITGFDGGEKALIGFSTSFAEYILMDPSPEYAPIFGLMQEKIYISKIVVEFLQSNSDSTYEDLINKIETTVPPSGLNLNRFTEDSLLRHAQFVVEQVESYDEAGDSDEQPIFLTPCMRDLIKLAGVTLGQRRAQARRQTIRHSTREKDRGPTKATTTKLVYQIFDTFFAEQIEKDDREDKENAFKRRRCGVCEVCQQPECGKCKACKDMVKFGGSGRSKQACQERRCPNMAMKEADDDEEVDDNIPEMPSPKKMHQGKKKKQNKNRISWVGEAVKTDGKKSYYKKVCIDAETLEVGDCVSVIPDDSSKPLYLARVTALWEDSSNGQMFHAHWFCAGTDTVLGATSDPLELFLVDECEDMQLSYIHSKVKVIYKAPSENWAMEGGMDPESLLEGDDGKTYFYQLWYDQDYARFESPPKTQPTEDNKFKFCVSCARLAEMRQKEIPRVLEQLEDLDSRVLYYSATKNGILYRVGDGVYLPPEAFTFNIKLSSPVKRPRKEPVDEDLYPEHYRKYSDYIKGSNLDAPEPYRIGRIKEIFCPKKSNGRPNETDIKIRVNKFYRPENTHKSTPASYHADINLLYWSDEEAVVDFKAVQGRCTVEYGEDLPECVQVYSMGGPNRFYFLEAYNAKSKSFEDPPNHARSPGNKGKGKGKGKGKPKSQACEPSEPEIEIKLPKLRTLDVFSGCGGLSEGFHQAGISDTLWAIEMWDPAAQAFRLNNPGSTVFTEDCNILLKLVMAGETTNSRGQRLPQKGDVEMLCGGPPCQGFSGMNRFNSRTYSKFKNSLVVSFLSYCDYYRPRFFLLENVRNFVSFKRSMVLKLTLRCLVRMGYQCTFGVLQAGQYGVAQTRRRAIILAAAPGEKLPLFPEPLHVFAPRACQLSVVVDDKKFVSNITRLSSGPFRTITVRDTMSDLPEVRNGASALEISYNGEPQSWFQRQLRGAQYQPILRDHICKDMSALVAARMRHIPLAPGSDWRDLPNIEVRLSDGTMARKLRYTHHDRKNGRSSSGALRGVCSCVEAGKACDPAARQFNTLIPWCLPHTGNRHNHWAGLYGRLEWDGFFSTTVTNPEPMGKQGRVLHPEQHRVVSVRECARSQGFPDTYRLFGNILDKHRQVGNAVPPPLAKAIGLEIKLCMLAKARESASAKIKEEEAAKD
Chain of Serine/threonine-protein phosphatase PP1-alpha catalytic subunit (P62136 whole entry): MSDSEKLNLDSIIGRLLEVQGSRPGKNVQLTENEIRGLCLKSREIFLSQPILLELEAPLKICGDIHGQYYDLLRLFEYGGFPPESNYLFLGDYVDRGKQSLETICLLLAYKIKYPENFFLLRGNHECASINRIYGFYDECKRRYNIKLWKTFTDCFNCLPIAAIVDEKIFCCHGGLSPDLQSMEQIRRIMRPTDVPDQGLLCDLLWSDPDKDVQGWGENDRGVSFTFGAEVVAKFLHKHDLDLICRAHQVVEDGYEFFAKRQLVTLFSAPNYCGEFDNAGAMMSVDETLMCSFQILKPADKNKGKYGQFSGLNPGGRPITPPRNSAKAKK
Chain of Tyrosyl-DNA phosphodiesterase 2 (O95551 whole entry): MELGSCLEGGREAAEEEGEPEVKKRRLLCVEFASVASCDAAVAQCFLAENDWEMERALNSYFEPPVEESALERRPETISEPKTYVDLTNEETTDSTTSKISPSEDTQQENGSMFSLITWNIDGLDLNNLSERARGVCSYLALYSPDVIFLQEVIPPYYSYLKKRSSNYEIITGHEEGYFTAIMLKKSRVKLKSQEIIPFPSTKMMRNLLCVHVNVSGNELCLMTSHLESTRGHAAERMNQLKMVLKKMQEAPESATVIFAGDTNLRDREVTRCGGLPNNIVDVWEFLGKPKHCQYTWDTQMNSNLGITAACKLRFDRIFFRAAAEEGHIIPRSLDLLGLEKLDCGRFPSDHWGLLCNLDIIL

For Oc1[nH]c2ccccc2c1N=Nc1ccc(F)cc1, the IC50 [1] was 3.07 µM (active), the EC50 [2] was > 300 µM (inconclusive) and the IC50 [3] was 19.3 µM (active). The EC50 [4] was > 99 µM (inactive).
In the case of O=C1C(Nc2ccccc2)=C(N2CCCCC2)C(=O)c2ccccc21, the AC50 [5] is reported as 37.4 µM (active), the IC50 [6] is reported as 18.9 µM (active) and the AC50 [7] is reported as 6.67 µM (active). The IC50 [8] was > 67 µM (not active), the IC50 [9] was > 128 µM (inactive) and the EC50 (Protein RecA) was 2.21 µM (active). The IC50 [10] was > 39.8 µM (not active).
